Patent publication EP0278686A1, “Pyridopyrimidines methods for their preparation and pharmaceutical formulations thereof” (THE WELLCOME FOUNDATION LIMITED, priority 1987, dated 1988)

What was measured:
DHFR [1] = target: T1, DHFR (Rattus norvegicus, UniProt Q920D2); assay: In vitro DHFR binding affinities (DHFR inhibition), rat liver enzyme; format: biochemical
T1 construct: DHFR isolated from bacterial and mammalian sources; from tissue; host or cells: rat liver
T1 sequence (Q920D2 1-187): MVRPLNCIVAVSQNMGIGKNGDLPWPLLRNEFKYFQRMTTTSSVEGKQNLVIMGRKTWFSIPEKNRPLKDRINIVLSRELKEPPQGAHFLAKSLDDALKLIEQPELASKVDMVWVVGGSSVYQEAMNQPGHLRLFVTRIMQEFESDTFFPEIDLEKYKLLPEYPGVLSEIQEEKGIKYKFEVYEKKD
Protocol: (§1) The inhibition by the title compound of DHFR isolated from bacterial and mammalian sources was determined using known procedures [B. Roth et al., J. Med. Chem., 24, 933 (1981)].

[2] = test system: human T-cell line CCRF/CEM; assay: In vitro cytotoxicity in cell culture, CCRF/CEM; format: cell-based; conditions: read-out: ED50 (the source's name)
Protocol: (§2) The cytotoxicity of the test compounds was determined in cell culture using the human T-cell line CCRF/CEM (ATCC CCL 119) and also the human breast cancer cell line MCF-7 [H.D. Soule, et al., J.. Nat. Cancer Inst., 51, 1409 (1973)].

[3] = test system: human breast cancer cell line MCF-7; assay: In vitro cytotoxicity in cell culture, MCF-7; format: cell-based; conditions: MCF7, Cell line MCF-7, cytotoxicity, read-out: ED50 (the source's name)
Protocol: as §2

DHFR [4] = target: T2, DHFR (Escherichia coli, UniProt P0ABQ4); assay: In vitro DHFR binding affinities (DHFR inhibition), E. coli enzyme; format: biochemical
T2 construct: DHFR isolated from bacterial and mammalian sources; endogenous in cells
Protocol: as §1

SMILES	IC50 (DHFR [1]) [nM]	EC50 [2] [nM]	EC50 [3] [nM]	IC50 (DHFR [4]) [nM]
COc1ccc(O)c(Cc2cnc3nc(N)nc(N)c3c2C)c1 [Compound A, 2,4-diamino-5-methyl-6-(2-hydroxy-5-methoxybenzyl)pyrido[2,3-d] pyrimidine]	18	400	790	8
COc1ccc(O)cc1Cc1cnc2nc(N)nc(N)c2c1C [Compound B, 2,4-diamino-5-methyl-6-(5-hydroxy-2-methoxybenzyl)pyrido[2,3-d] pyrimidine]	12	80	750	16
